# In PubChem BioAssay (NCI):
#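 Method: 48-hour compound exposure of cells in 96-well plates, five concentrations, linear interpolation of endpoints. At the GI50, growth is halved. TGI: total growth inhibition.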
# What was measured:
# Assay in all cases: NCI tumour cell line growth inhibition, 48 h
# SK-OV-3 ovarian = test system: SK-OV-3 ovarian
# UO-31 renal = test system: UO-31 renal
# OVCAR-3 ovarian = test system: OVCAR-3 ovarian
# MDA-MB-231 breast = test system: MDA-MB-231 breast
# SK-MEL-28 melanoma = test system: SK-MEL-28 melanoma
# HCT-15 colon = test system: HCT-15 colon
# HS 578T breast = test system: HS 578T breast
# SNB-75 CNS = test system: SNB-75 CNS
# NCI/ADR-RES ovarian = test system: NCI/ADR-RES ovarian
# A549 NSCLC = test system: A549 NSCLC
# HOP-62 NSCLC = test system: HOP-62 NSCLC
# BT-549 breast = test system: BT-549 breast
# MOLT-4 leukemia = test system: MOLT-4 leukemia
# NCI-H460 lung = test system: NCI-H460 lung
# OVCAR-8 ovarian = test system: OVCAR-8 ovarian
# HT29 colon = test system: HT29 colon
# OVCAR-5 ovarian = test system: OVCAR-5 ovarian
# HCC-2998 colon = test system: HCC-2998 colon
# UACC-62 melanoma = test system: UACC-62 melanoma
# SR leukemia = test system: SR leukemia
# DU-145 prostate = test system: DU-145 prostate
# T-47D breast = test system: T-47D breast
# SF-539 CNS = test system: SF-539 CNS
# K-562 leukemia = test system: K-562 leukemia
# SN12C renal = test system: SN12C renal
# SNB-19 CNS = test system: SNB-19 CNS
# RPMI-8226 leukemia = test system: RPMI-8226 leukemia
# UACC-257 melanoma = test system: UACC-257 melanoma
# A498 renal = test system: A498 renal
# KM12 colon = test system: KM12 colon
# HCT-116 colon = test system: HCT-116 colon
# HL-60(TB) leukemia = test system: HL-60(TB) leukemia
# MDA-MB-435 = test system: MDA-MB-435
# NCI-H522 lung = test system: NCI-H522 lung
# TK-10 renal = test system: TK-10 renal
# CCRF-CEM leukemia = test system: CCRF-CEM leukemia
# ACHN renal = test system: ACHN renal
# M14 melanoma = test system: M14 melanoma
# MCF7 breast = test system: MCF7 breast
# SW-620 colon = test system: SW-620 colon
# 786-0 renal = test system: 786-0 renal
# IGROV1 ovarian = test system: IGROV1 ovarian
# PC-3 prostate = test system: PC-3 prostate
# SF-268 CNS = test system: SF-268 CNS
# NCI-H226 lung = test system: NCI-H226 lung
# MALME-3M melanoma = test system: MALME-3M melanoma
# SK-MEL-5 melanoma = test system: SK-MEL-5 melanoma
# SF-295 CNS = test system: SF-295 CNS
# CAKI-1 renal = test system: CAKI-1 renal
# COLO 205 colon = test system: COLO 205 colon
# OVCAR-4 ovarian = test system: OVCAR-4 ovarian
# NCI-H23 lung = test system: NCI-H23 lung
# RXF 393 renal = test system: RXF 393 renal
# U251 CNS = test system: U251 CNS
# HOP-92 NSCLC = test system: HOP-92 NSCLC
# SK-MEL-2 melanoma = test system: SK-MEL-2 melanoma
# LOX IMVI melanoma = test system: LOX IMVI melanoma
# EKVX NSCLC = test system: EKVX NSCLC
structure (smiles),measurement,setting,value
O=c1ncc(-c2ccc(C(F)(F)F)cc2)c(NC2CCCCCC2)[nH]1,GI50,SK-OV-3 ovarian,27.3 µM
same,TGI,SK-OV-3 ovarian,64.3 µM
same,GI50,UO-31 renal,14.2 µM
same,TGI,UO-31 renal,38.9 µM
same,GI50,OVCAR-3 ovarian,17.2 µM
same,TGI,OVCAR-3 ovarian,34.6 µM
same,GI50,MDA-MB-231 breast,16.6 µM
same,TGI,MDA-MB-231 breast,38.1 µM
same,GI50,SK-MEL-28 melanoma,17 µM
same,TGI,SK-MEL-28 melanoma,33.9 µM
same,GI50,HCT-15 colon,22.1 µM
same,TGI,HCT-15 colon,64.6 µM
same,GI50,HS 578T breast,17.9 µM
same,TGI,HS 578T breast,53.9 µM
same,GI50,SNB-75 CNS,13.7 µM
same,TGI,SNB-75 CNS,33.4 µM
same,GI50,NCI/ADR-RES ovarian,25.2 µM
same,TGI,NCI/ADR-RES ovarian,68.2 µM
same,GI50,A549 NSCLC,25.5 µM
same,TGI,A549 NSCLC,> 100 µM
same,GI50,HOP-62 NSCLC,20.3 µM
same,TGI,HOP-62 NSCLC,36.8 µM
same,GI50,BT-549 breast,19.5 µM
same,TGI,BT-549 breast,39 µM
same,GI50,MOLT-4 leukemia,17.9 µM
same,TGI,MOLT-4 leukemia,43.1 µM
same,GI50,NCI-H460 lung,17.7 µM
same,TGI,NCI-H460 lung,35 µM
same,GI50,OVCAR-8 ovarian,18.7 µM
same,TGI,OVCAR-8 ovarian,40.4 µM
same,GI50,HT29 colon,21.5 µM
same,TGI,HT29 colon,39 µM
same,GI50,OVCAR-5 ovarian,22.9 µM
same,TGI,OVCAR-5 ovarian,48.3 µM
same,GI50,HCC-2998 colon,20 µM
same,TGI,HCC-2998 colon,35.9 µM
same,GI50,UACC-62 melanoma,13.8 µM
same,TGI,UACC-62 melanoma,29.3 µM
same,GI50,SR leukemia,16.3 µM
same,TGI,SR leukemia,38.3 µM
same,GI50,DU-145 prostate,31.6 µM
same,TGI,DU-145 prostate,98.1 µM
same,GI50,T-47D breast,17.2 µM
same,TGI,T-47D breast,57.8 µM
same,GI50,SF-539 CNS,15.2 µM
same,TGI,SF-539 CNS,30.1 µM
same,GI50,K-562 leukemia,24.2 µM
same,TGI,K-562 leukemia,60.1 µM
same,GI50,SN12C renal,16.2 µM
same,TGI,SN12C renal,33 µM
same,GI50,SNB-19 CNS,24.2 µM
same,TGI,SNB-19 CNS,80.8 µM
same,GI50,RPMI-8226 leukemia,15.8 µM
same,TGI,RPMI-8226 leukemia,39.6 µM
same,GI50,UACC-257 melanoma,23.1 µM
same,TGI,UACC-257 melanoma,57.6 µM
same,GI50,A498 renal,16.1 µM
same,TGI,A498 renal,34 µM
same,GI50,KM12 colon,19.9 µM
same,TGI,KM12 colon,44.3 µM
same,GI50,HCT-116 colon,16.8 µM
same,TGI,HCT-116 colon,33.6 µM
same,GI50,HL-60(TB) leukemia,21 µM
same,TGI,HL-60(TB) leukemia,46.4 µM
same,GI50,MDA-MB-435,15.6 µM
same,TGI,MDA-MB-435,34.4 µM
same,GI50,NCI-H522 lung,19.7 µM
same,TGI,NCI-H522 lung,44.4 µM
same,GI50,TK-10 renal,35.7 µM
same,TGI,TK-10 renal,73.9 µM
same,GI50,CCRF-CEM leukemia,19.7 µM
same,TGI,CCRF-CEM leukemia,48 µM
same,GI50,ACHN renal,30.9 µM
same,TGI,ACHN renal,> 100 µM
same,GI50,M14 melanoma,20.4 µM
same,TGI,M14 melanoma,45.8 µM
same,GI50,MCF7 breast,16.2 µM
same,TGI,MCF7 breast,56.4 µM
same,GI50,SW-620 colon,23.9 µM
same,TGI,SW-620 colon,68.7 µM
same,GI50,786-0 renal,23.6 µM
same,TGI,786-0 renal,52.4 µM
same,GI50,IGROV1 ovarian,19.1 µM
same,TGI,IGROV1 ovarian,40.2 µM
same,GI50,PC-3 prostate,19 µM
same,TGI,PC-3 prostate,54.9 µM
same,GI50,SF-268 CNS,18.4 µM
same,TGI,SF-268 CNS,36.5 µM
same,GI50,NCI-H226 lung,19.4 µM
same,TGI,NCI-H226 lung,46 µM
same,GI50,MALME-3M melanoma,17.2 µM
same,TGI,MALME-3M melanoma,33.7 µM
same,GI50,SK-MEL-5 melanoma,16.6 µM
same,TGI,SK-MEL-5 melanoma,30.6 µM
same,GI50,SF-295 CNS,17 µM
same,TGI,SF-295 CNS,34 µM
same,GI50,CAKI-1 renal,18.7 µM
same,TGI,CAKI-1 renal,48.4 µM
same,GI50,COLO 205 colon,19.6 µM
same,TGI,COLO 205 colon,34.7 µM
same,GI50,OVCAR-4 ovarian,21.3 µM
same,TGI,OVCAR-4 ovarian,77.5 µM
same,GI50,NCI-H23 lung,29.4 µM
same,TGI,NCI-H23 lung,90.9 µM
same,GI50,RXF 393 renal,15.8 µM
same,TGI,RXF 393 renal,31.8 µM
O=C1C=C(Nc2ccccc2)c2ncccc2C1=O,GI50,SK-OV-3 ovarian,1.75 µM
same,TGI,SK-OV-3 ovarian,3.16 µM
same,GI50,UO-31 renal,0.333 µM
same,TGI,UO-31 renal,1.32 µM
same,GI50,OVCAR-3 ovarian,0.28 µM
same,TGI,OVCAR-3 ovarian,0.825 µM
same,GI50,MDA-MB-231 breast,0.485 µM
same,TGI,MDA-MB-231 breast,3.4 µM
same,GI50,SK-MEL-28 melanoma,1.7 µM
same,TGI,SK-MEL-28 melanoma,3.24 µM
same,GI50,HCT-15 colon,0.321 µM
same,TGI,HCT-15 colon,1.28 µM
same,GI50,HS 578T breast,2.33 µM
same,TGI,HS 578T breast,6.58 µM
same,GI50,SNB-75 CNS,1.58 µM
same,TGI,SNB-75 CNS,2.94 µM
same,GI50,NCI/ADR-RES ovarian,0.33 µM
same,TGI,NCI/ADR-RES ovarian,1.88 µM
same,GI50,A549 NSCLC,0.476 µM
same,TGI,A549 NSCLC,2.3 µM
same,GI50,HOP-62 NSCLC,0.376 µM
same,TGI,HOP-62 NSCLC,1.49 µM
same,GI50,BT-549 breast,1.28 µM
same,TGI,BT-549 breast,2.64 µM
same,GI50,U251 CNS,0.348 µM
same,TGI,U251 CNS,1.2 µM
same,GI50,HOP-92 NSCLC,1.49 µM
same,TGI,HOP-92 NSCLC,2.97 µM
same,GI50,MOLT-4 leukemia,1.02 µM
same,TGI,MOLT-4 leukemia,3.78 µM
same,GI50,NCI-H460 lung,0.35 µM
same,TGI,NCI-H460 lung,1.11 µM
same,GI50,OVCAR-8 ovarian,0.373 µM
same,TGI,OVCAR-8 ovarian,1.4 µM
same,GI50,HT29 colon,2.78 µM
same,TGI,HT29 colon,> 26.7 µM
same,GI50,OVCAR-5 ovarian,1.74 µM
same,TGI,OVCAR-5 ovarian,3.4 µM
same,GI50,HCC-2998 colon,1.55 µM
same,TGI,HCC-2998 colon,3 µM
same,GI50,UACC-62 melanoma,0.224 µM
same,TGI,UACC-62 melanoma,0.521 µM
same,GI50,SR leukemia,0.691 µM
same,TGI,SR leukemia,> 100 µM
same,GI50,DU-145 prostate,0.341 µM
same,TGI,DU-145 prostate,1.12 µM
same,GI50,T-47D breast,1.27 µM
same,TGI,T-47D breast,3.58 µM
same,GI50,SF-539 CNS,0.356 µM
same,TGI,SF-539 CNS,1.21 µM
same,GI50,SN12C renal,0.29 µM
same,TGI,SN12C renal,0.829 µM
same,GI50,SNB-19 CNS,0.411 µM
same,TGI,SNB-19 CNS,1.43 µM
same,GI50,RPMI-8226 leukemia,0.305 µM
same,TGI,RPMI-8226 leukemia,1.3 µM
same,GI50,UACC-257 melanoma,1.29 µM
same,TGI,UACC-257 melanoma,2.66 µM
same,GI50,A498 renal,1.64 µM
same,TGI,A498 renal,3 µM
same,GI50,SK-MEL-2 melanoma,1.91 µM
same,TGI,SK-MEL-2 melanoma,3.67 µM
same,GI50,KM12 colon,0.669 µM
same,TGI,KM12 colon,2.11 µM
same,GI50,LOX IMVI melanoma,0.208 µM
same,TGI,LOX IMVI melanoma,0.514 µM
same,GI50,HCT-116 colon,0.291 µM
same,TGI,HCT-116 colon,0.883 µM
same,GI50,HL-60(TB) leukemia,0.842 µM
same,TGI,HL-60(TB) leukemia,3.84 µM
same,GI50,MDA-MB-435,0.178 µM
same,TGI,MDA-MB-435,0.323 µM
same,GI50,NCI-H522 lung,0.704 µM
same,TGI,NCI-H522 lung,2.44 µM
same,GI50,TK-10 renal,1.82 µM
same,TGI,TK-10 renal,3.28 µM
same,GI50,ACHN renal,0.349 µM
same,TGI,ACHN renal,1.22 µM
same,GI50,M14 melanoma,0.352 µM
same,TGI,M14 melanoma,1.17 µM
same,GI50,MCF7 breast,0.203 µM
same,TGI,MCF7 breast,0.452 µM
same,GI50,SW-620 colon,0.34 µM
same,TGI,SW-620 colon,1.28 µM
same,GI50,786-0 renal,1.52 µM
same,TGI,786-0 renal,3.05 µM
same,GI50,IGROV1 ovarian,0.904 µM
same,TGI,IGROV1 ovarian,2.58 µM
same,GI50,PC-3 prostate,0.439 µM
same,TGI,PC-3 prostate,2.29 µM
same,GI50,SF-268 CNS,0.446 µM
same,TGI,SF-268 CNS,1.8 µM
same,GI50,NCI-H226 lung,1.71 µM
same,TGI,NCI-H226 lung,3.61 µM
same,GI50,MALME-3M melanoma,1.06 µM
same,TGI,MALME-3M melanoma,2.37 µM
same,GI50,SK-MEL-5 melanoma,0.177 µM
same,TGI,SK-MEL-5 melanoma,0.318 µM
same,GI50,SF-295 CNS,1.31 µM
same,TGI,SF-295 CNS,2.6 µM
same,GI50,CAKI-1 renal,1.39 µM
same,TGI,CAKI-1 renal,2.7 µM
same,GI50,COLO 205 colon,1.95 µM
same,TGI,COLO 205 colon,3.92 µM
same,GI50,OVCAR-4 ovarian,0.321 µM
same,TGI,OVCAR-4 ovarian,1.11 µM
same,GI50,EKVX NSCLC,1.37 µM
same,TGI,EKVX NSCLC,2.81 µM
same,GI50,NCI-H23 lung,0.307 µM
same,TGI,NCI-H23 lung,1.31 µM
same,GI50,RXF 393 renal,1.4 µM
same,TGI,RXF 393 renal,2.72 µM
